# Data published in US12208111B2 (LUNELLA BIOTECH, INC., priority 2018, dated 2025).
# Like-named read-outs stand apart in the source and are kept apart here.
# Tests used:
# Assay type in all cases: cell-based, human
# [1] = system: MRC-5 cells; test: Beta-galactosidase staining; details: 8 days of BrdU treatment
# Experimental: Furthermore, the inventors validated the use of BrdU-induced DNA-damage as being sufficient to induce cellular senescence. […] The results evidence that the cells treated with BrdU underwent cell cycle arrest, as evidenced by both a ˜70% reduction in the number of cells in S-phase, and the induction of beta-galactosidase activity.
# Beta-Gal staining: Beta-Galactosidase staining of BrdU-treated MRC-5 cells was performed by Senescence B-Galactosidase Staining Kit (#9860, Cell Signalling Technology Inc.) and was done according to manufacturer's protocol.
# [2] = system: MRC-5 fibroblasts; test: DNA synthesis / cell cycle, Muse cell cycle kit; details: two-day treatment with BrdU
# Experimental: The […] […] Autophagy and Cell cycle analysis: Autophagy (using MuseTMM Autophagy LC3-antibody based Kit, Merck Millipore) and cell cycle (Muse® Cell Cycle Kit, Merck Millipore) experiments were performed according to manufacturer's instructions.
# [3] = system: senescent MRC-5 cells; test: SRB assay, viability of BrdU-induced senescent MRC-5 fibroblasts
# Experimental: (§1) Bromodeoxyuridine (5-bromo-2′-deoxyuridine), also known as BrdU, may be used to induce senescence. BrdU is an analog of the nucleoside thymidine commonly used to identify proliferating cells. BrdU induces controlled DNA damage, and drives cells towards senescence with high efficiency. The BrdU assay of the present approach calls for subjecting normal fibroblasts to prolonged culture (8-days) in the presence of BrdU at 100 μM to induce controlled DNA-damage and senescence. […] Then, isogenically-matched cultures of normal and senescent fibroblasts may be used for drug screening to identify drugs having senolytic activity. Senolytic activity may be detected using the sulforhodamine B assay, also known in the art as the SRB assay. This assay measures the amount of protein remaining attached to the tissue-culture dishes, and is a surrogate marker for cell viability. This approach may be used to rapidly screen compounds, including clinically-approved drugs, such as, for example, antibiotics. […] It should be appreciated that the present approach may be used to screen other compounds.
# After that, the SRB assay was performed to determine the effects of the drug on cell viability. […] The scale bar in the upper-right of FIGS. 3B and 3C represents 20 μm.
# After the 5-day exposure, the SRB assay was performed to determine the effects of the drug on cell viability. […] The * indicates p<0.05 in FIG. 4.
# MRC-5 or BJ cells were plated into 24-well plates. Next day, half of the plate was treated with 100 μM of BrdU while control wells were treated with vehicle only (DMSO) and incubated for 8 days at 37° C. in a 5% CO2 humidified atmosphere. […] BrdU is washed out before the drug treatments.
# Sulphorhodamine B assay: After the incubation of the plates cell viability was measured by Sulphorhodamine B assay (SRB). The assay is based on the measurement of cellular protein contents. Cells were fixed with 10% Trichloroacetic acid (TCA) for 1 hour at 4 °C, and were dried overnight at room temperature. Then, plates were incubated with SRB for 30 min, washed twice with 1% acetic acid and air dried for at least 1 h. Finally, the protein-bound dye was dissolved in a 10 mM Tris, pH 8.8, solution and read using a plate reader at 540-nm.
# [4] = system: normal control MRC-5 cells; test: xCELLigence real-time cell analysis, normal MRC-5 fibroblasts; details: 90 μM
# From the text: (§2) In further application of the present approach, the selectivity of azithromycin towards senescent cells was validated using the xCELLigence system. Because senescent cells undergo the so-called senescence-associated secretory phenotype (SASP), which involves dramatic increases in the synthesis and secretion of proteins, the inventors assessed whether the protein measurement assay system under-estimates the senolytic activity of tested compounds. […] The normalized cell index for the control was noticeably higher immediately after treatment, and coincided with the BrdU-only curve until about hour 235. […] For the data shown in FIGS. 9A and 9B, the **** indicates p<0.001. The real-time xCELLigence assay system thus compliments the more static SRB assay, and offers a more direct visualization of the potential senolytic effects of compounds during drug screening. The xCELLigence assays were also used to confirm senolytic activity for roxithromycin and telithromycin. […] MRC-5 fibroblasts were used for these assays. […] Note that in FIG. 10A. * indicates p<0.01. From top to bottom at time 249 hours, the lines represent the control, BrdU-only, Control with roxithromycin (90 μM), and BrdU with roxithromycin. […] The same approach was used to confirm senolytic activity for telithromycin. […] This approach allows the quantification of the onset and kinetics of the cellular response. […]
# [5] = system: senescent MRC-5 cells; test: xCELLigence real-time cell analysis, senescent (BrdU-treated) MRC-5 fibroblasts; details: 90 μM, 5 days after BrdU wash out
# From the text: as §2
# [6] = system: normal MRC-5 lung fibroblasts; test: SRB assay, viability of normal MRC-5 fibroblasts; details: 100 μM, 5 days
# Experimental: as §1, with “compounds. […]” for “compounds.”
# Sulphorhodamine B assay: After the incubation of the plates cell viability was measured by Sulphorhodamine B assay (SRB). […] Finally, the protein-bound dye was dissolved in a 10 mM Tris, pH 8.8, solution and read using a plate reader at 540-nm.
SMILES,beta-galactosidase staining (biomarker of cellular senescence) [1],reduction of DNA synthesis [2] [%],senolytic activity in the screening assay [3],Viability of senescent MRC-5 cells (% versus control) ([3]; 50 μM) [%],Viability of senescent MRC-5 cells (% versus control) ([3]; 100 μM) [%],"effect on senescent MRC-5 cell viability ([3]; 50 μM, 5 days)",senolytic activity in the screening assay ([3]; 100 μM),effect on viability of normal MRC-5 fibroblasts (final cell index) [4],senescent MRC-5 cells targeted (final cell index) [5] [%],effect on viability of normal MRC-5 fibroblasts [6]
"O=c1[nH]c(=O)n([C@H]2C[C@H](O)[C@@H](CO)O2)cc1Br [BrdU, 5-bromo-2′-deoxyuridine]",positively stained,~70,–,–,–,–,–,–,–,–
"CC[C@H]1OC(=O)[C@H](C)[C@@H](O[C@H]2C[C@@](C)(OC)[C@@H](O)[C@H](C)O2)[C@H](C)[C@@H](O[C@@H]2O[C@H](C)C[C@H](N(C)C)[C@H]2O)[C@](C)(O)C[C@@H](C)C(=O)[C@H](C)[C@@H](O)[C@]1(C)O [Erythromycin, erythromycin]",–,–,did not show any senolytic activity,100,100,–,–,–,–,–
"CC[C@H]1OC(=O)[C@H](C)[C@@H](O[C@H]2C[C@@](C)(OC)[C@@H](O)[C@H](C)O2)[C@H](C)[C@@H](O[C@@H]2O[C@H](C)C[C@H](N(C)C)[C@H]2O)[C@](C)(O)C[C@@H](C)/C(=N\OCOCCOC)[C@H](C)[C@@H](O)[C@]1(C)O [Roxithromycin, roxithromycin]",–,–,–,100,30.99,no effect,have senolytic activity,minimal effect,82,small effect
"CC[C@H]1OC(=O)[C@H](C)C(=O)[C@H](C)[C@@H](O[C@@H]2O[C@H](C)C[C@H](N(C)C)[C@H]2O)[C@](C)(OC)C[C@@H](C)C(=O)[C@H](C)[C@H]2N(CCCCn3cnc(-c4cccnc4)c3)C(=O)O[C@]12C [Telithromycin, telithromycin]",–,–,showed beneficial senolytic activity,–,–,–,–,negligible impact,100,–
